Results: patent US10294230B2, “3,3-difluoropiperidine carbamate heterocyclic compounds as NR2B NMDA receptor antagonists” (Rugen Holdings (Cayman) Limited, priority 2015, dated 2019)

Test system: KCl-induced cortical spreading depression
Test: Cortical Spreading Depression (CSD), aura phase of migraine model
Type: in vivo
Settings: rats
Experimental: The cortical spreading depression model is utilized to investigate whether treatment with compounds of the present invention affect electrophysiological and hemodynamic events in a rat model of migraine.
Rats were anesthetized with 5% isoflurane (in 70% N2O and 30% O2; flow 300 ml/min) and placed in a stereotactic frame. […] The rectal temperature was maintained at 37.0±1.0° C. with a homeothermic blanket system. The skin was opened by a medial incision and retracted laterally. Three burr holes were drilled under saline cooling over the right hemisphere at the following coordinates (mm from bregma): (1) posterior 4.5, lateral, 2.0 (occipital cortex): KCl application site; (2) posterior 0.5, lateral 2.0 (parietal cortex): LDF recording site; (3) anterior 2, lateral 2 (frontal cortex): DC potential recording site. A laser-Doppler flow probe (Oxyflow, Oxford Optronics, UK) to monitor CBF and an invasive Ag/AgCl electrode for measuring direct current (DC) potential shifts were placed in the parietal and frontal cortex burr holes on the intact dura and in the cortex, respectively. The laser-Doppler flow probe was positioned in an area free of large pial and dural vessels to minimize a large-vessel contribution to the signal. For the DC-potential measurement, a reference electrode was fixed in the neck. Dura overlying the occipital cortex was gently removed and care was taken to avoid bleeding. After surgical preparation, the cortex was allowed to recover for 15 minutes under saline irrigation. A cotton ball (2 mm diameter) soaked with 1M KCl was placed on the pial surface and kept moist by placing 5 μl of KCl solution every 15 minutes. Test compound or vehicle was administered ten (10) minutes prior to CSD initiation. […] The number of KCl-induced CSDs was counted for 2 hours. The CBF and DC-potentials were monitored continuously starting from 5 minutes before KCl exposure.
Test compound E1-1.2 was administered as a mesylate salt (mpk based on molecular weight of the mesylate salt).
The data was collected in Windaq acquisition software (Dataq Instruments, USA) at 20 kHz. The raw data was analyzed in Clampfit program (Axon Instruments, USA). The signals were low pass filtered (cut off range 5-10000 Hz) that CSD episodes in DC and CBF could be confirmed. The following parameters were analyzed: i) the number, duration and amplitude of DC-potentials, and ii) the number and amplitude of CBF events.
Doses were given as milligram per kilogram (mpk). […] Bars represent mean±Standard Error of Mean (SEM), and differences were considered to be statistically significant at the P<0.05 level (n=8, * different from vehicle group). Statistical analysis was performed using StatsDirect statistical software. Differences between groups were analyzed by using 1-way ANOVA and Dunnett's post hoc test.

[1] = E1-1.2 at various doses, MK-801 1.25 mg/kg

With Cc1ccc(COC(=O)N2CC[C@H](CNc3nccn4cnnc34)C(F)(F)C2)cc1 [Compound E1-1.2, (+)-R-4-methylbenzyl 4-(([1,2,4]triazolo[4,3-a]pyrazin-8-ylamino)methyl)-3,3-difluoropiperidine-1-carboxylate] the “magnitude of CBF vs vehicle” value was “unchanged”, the “number of DC potentials vs vehicle” value (3 mpk, 10 mpk and 30 mpk, mesylate salt) was “significantly decreased” and the “number of CBF events vs vehicle” value (E1-1.2 at 10 mg/kg, MK-801 at 1.25 mg/kg) was “decreased”. For the same compound, the “amplitude of DC potentials vs vehicle” value [1] was “not statistically different” and the “duration of DC potentials vs vehicle” value [1] was “not statistically different”.
